Laboratory results as given in publication PMC10150354, “Linearization of the Brevicidine and Laterocidine Lipopeptides Yields Analogues That Retain Full Antibacterial Activity” (Journal of Medicinal Chemistry, 2023).
Values after ≈ are worked out from the molar mass of the structure shown. Where a SMILES comes first, the peptide text is derived from it. [ ]: non-standard residue; d: D form. The star is where a group is joined. ξ: configuration not given here. Octanoyl(7-Me) = CC(C)CCCCCC(=O)*; Hexanoyl(4ξ-Me) = CCC(C)CCC(=O)*; dOrn = NCCC[C@@H](N)C(=O)O; Orn = NCCC[C@H](N)C(=O)O; Dap = NC[C@H](N)C(=O)O; Alloc = C=CCOC(=O)*

Assays:
[1] = tested on: panel of Gram-negative and Gram-positive ESKAPE pathogens; format: cell-based; conditions: for fold improvement in activity with respect to C-terminal acids 4 and 5: MIC of C-terminal amide vs C-terminal acid; for fold reduction in activity compared to parent peptides: MIC vs brevicidine / laterocidine
Description: Linear laterocidine (LL-OH, 4) and linear brevicidine (LB-OH, 5) were first synthesized by Fmoc SPPS, starting from 2-chlorotrityl (2-CT) chloride resin. The antibacterial activity of these peptides was then compared to brevicidine (1) and laterocidine (2) using minimum inhibitory concentration (MIC)/microbroth dilution assays (Table 1). The MICs of all peptides were determined against a panel of Gram-negative and Gram-positive ESKAPE pathogens. Additionally, a strain of E. coli carrying the mcr-1 gene was included in the panel. The mcr-1 gene is a transferrable plasmid that confers resistance against colistin, a last-resort antibiotic for Gram-negative infections, by reducing the overall negative charge of lipopolysaccharide (LPS) through modification of lipid A with phosphoethanolamine. The propensity for cationic antibiotics to bind to the cell membrane is therefore reduced. This gene has been observed in more than 27 bacterial species over six continents.[26] The spread of the mcr-1 gene could render colistin ineffectual; therefore, novel antibacterials are urgently required to overcome this form of resistance.
All minimum inhibitory concentrations (MICs) were determined according to Clinical and Laboratory Standards Institute (CLSI) guidelines. Blood agar plates were inoculated with glycerol stocks of E. coli ATCC 25922, K. pneumoniae ATCC 13883, A. baumannii ATCC 17961, P. aeruginosa PAO1, and S. aureus USA300. The inoculated agar plates were then incubated for 16 h at 37 °C. Individually grown colonies were subsequently used to inoculate 5 mL aliquots of TSB that were then incubated at 37 °C with shaking at 220 rpm. E. coli 25922 MCR-1 glycerol stock was used to inoculate 5 mL of TSB supplemented with kanamycin that was then incubated for 16 h at 37 °C with shaking at 220 rpm. The next day the culture was diluted 100-fold in TSB supplemented with kanamycin and incubated at 37 °C with shaking at 220 rpm. In parallel, the lipopeptide antibiotics DMSO stocks to be assessed were serially diluted with MHB in polypropylene 96-well plates (50 μL in each well). Colistin sulfate stocks were dissolved in water before being diluted with MHB. Aliquots of the inoculated TSB were incubated until an OD600 of around 0.5 was reached. The bacterial suspensions were then diluted with MHB (2 × 10^5 CFU/mL) and added to the microplates containing the test compounds (50 μL to each well). The well plates were sealed with an adhesive membrane and after 18 h of incubation at 37 °C with shaking at 600 rpm, the wells were visually inspected for bacterial growth. MIC values reported are based on three technical replicates and defined as the lowest concentration of the compound that prevented visible growth of bacteria.

[2] = tested on: A. baumannii ATCC 17961; format: cell-based, Acinetobacter baumannii; conditions: microbroth dilution per CLSI, MHB, 18 h at 37 °C, visual inspection, three technical replicates
In short: (§1)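 MIC taken as the lowest concentration with no visible growth after 18 h, 37 °C, shaking, three technical replicates. Peptides were serially diluted in MHB and received cells from TSB cultures at OD600 ~0.5, diluted to 2 × 10^5 CFU/mL (kanamycin selection for the mcr-1 E. coli), following CLSI guidelines.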

[3] = tested on: S. aureus USA300; format: cell-based, Staphylococcus aureus; conditions: microbroth dilution per CLSI, MHB, 18 h at 37 °C, visual inspection, three technical replicates
In short: as §1

[4] = tested on: K. pneumoniae ATCC 13883; format: cell-based, Klebsiella pneumoniae; conditions: microbroth dilution per CLSI, MHB, 18 h at 37 °C, visual inspection, three technical replicates
In short: as §1

[5] = tested on: P. aeruginosa PAO1; format: cell-based, Pseudomonas aeruginosa; conditions: microbroth dilution per CLSI, MHB, 18 h at 37 °C, visual inspection, three technical replicates
In short: as §1

[6] = tested on: E. coli (MCR-1); format: cell-based, Escherichia coli; conditions: microbroth dilution per CLSI, MHB, 18 h at 37 °C, visual inspection, three technical replicates, E. coli 25922 carrying mcr-1
In short: as §1

[7] = tested on: E. coli ATCC 25922; format: cell-based, Escherichia coli; conditions: for Antibacterial activity (MIC) E. coli ATCC 25922: microbroth dilution per CLSI, MHB, 18 h at 37 °C, visual inspection, three technical replicates; for MIC (µg/mL) against E. coli (ATCC 25922): (Supplement 2)
In short: as §1

| SMILES | fold improvement in activity with respect to C-terminal acids 4 and 5 [1] | fold reduction in activity compared to parent peptides [1] | Antibacterial activity (MIC) A. baumannii ATCC 17961 [2] | Antibacterial activity (MIC) S. aureus USA300 [3] | Antibacterial activity (MIC) K. pneumoniae ATCC 13883 [4] | Antibacterial activity (MIC) P. aeruginosa PAO1 [5] | Antibacterial activity (MIC) E. coli (MCR-1) [6] | Antibacterial activity (MIC) E. coli ATCC 25922 [7] | MIC values, summarised over strains ([1]; against most strains of the panel) | MIC (µg/mL) against E. coli (ATCC 25922) [7] |
| --- | --- | --- | --- | --- | --- | --- | --- | --- | --- | --- |
| CCC(C)CCC(=O)N[C@H](CC(N)=O)C(=O)N[C@H](Cc1ccc(O)cc1)C(=O)N[C@H](Cc1c[nH]c2ccccc12)C(=O)N[C@H](CCCN)C(=O)N[C@@H](CCCN)C(=O)NCC(=O)N[C@H](CCCN)C(=O)N[C@@H](Cc1c[nH]c2ccccc12)C(=O)N[C@H](C(=O)N[C@H](C(=O)NCC(=O)N[C@@H](CO)C(N)=O)[C@@H](C)CC)[C@@H](C)O (some centres unmarked) [LB-NH2 (7)] ({Hexanoyl(4ξ-Me)}-[dN][dY][dW][dOrn][Orn]G[dOrn]WTIGS-NH2) | 2 fold | 2/4 | 16 mg/L | >32 mg/L | 16 mg/L | 4 mg/L | 16 mg/L | 16 mg/L |  |  |
| C=CCOC(=O)NC[C@H](NC(=O)[C@H](Cc1c[nH]c2ccccc12)NC(=O)[C@@H](CCCN)NC(=O)CNC(=O)[C@H](CCCN)NC(=O)[C@@H](CCCN)NC(=O)[C@@H](Cc1c[nH]c2ccccc12)NC(=O)[C@@H](Cc1ccc(O)cc1)NC(=O)[C@@H](CC(N)=O)NC(=O)CCC(C)CC)C(=O)N[C@H](C(=O)NCC(N)=O)[C@@H](C)CC (some centres unmarked) [Δ12LB (Dap[Alloc]9)-NH2 (61)] ({Hexanoyl(4ξ-Me)}-[dN][dY][dW][dOrn][Orn]G[dOrn]W[Dap](Alloc)IG-NH2) |  |  | 2 mg/L | >32 mg/L | 2 mg/L | 4 mg/L | 4 mg/L | 4 mg/L | 2 to 4 mg/L | 4 µg/mL (≈ 2.63 µM) |
| CC[C@H](C)[C@H](NC(=O)[C@@H](NC(=O)[C@H](Cc1c[nH]c2ccccc12)NC(=O)[C@@H](CCCN)NC(=O)CNC(=O)[C@H](CCCN)NC(=O)[C@@H](CCCN)NC(=O)[C@@H](Cc1c[nH]c2ccccc12)NC(=O)[C@@H](Cc1ccc(O)cc1)NC(=O)[C@@H](CO)NC(=O)CCCCCC(C)C)[C@@H](C)O)C(=O)N[C@@H](CC(N)=O)C(=O)NCC(=O)NCC(N)=O [LL-NH2 (6)] ({Octanoyl(7-Me)}-[dS][dY][dW][dOrn][Orn]G[dOrn]WTINGG-NH2) | 2 fold | 2/4 | 8 mg/L | >32 mg/L | 4 to 8 mg/L | 4 mg/L | 8 mg/L | 4 mg/L |  |  |
| CCC(C)CCC(=O)N[C@H](CC(N)=O)C(=O)N[C@H](Cc1ccc(O)cc1)C(=O)N[C@H](Cc1c[nH]c2ccccc12)C(=O)N[C@H](CCCN)C(=O)N[C@@H](CCCN)C(=O)NCC(=O)N[C@H](CCCN)C(=O)N[C@@H](Cc1c[nH]c2ccccc12)C(=O)N[C@@H](CC(N)=O)C(=O)N[C@H](C(=O)NCC(N)=O)[C@@H](C)CC (some centres unmarked) [Δ12LB (Asn9)-NH2 (58)] ({Hexanoyl(4ξ-Me)}-[dN][dY][dW][dOrn][Orn]G[dOrn]WNIG-NH2) |  |  | 16 mg/L | >32 mg/L | 16 mg/L | 2 mg/L | 8 mg/L | 8 mg/L |  | 4 µg/mL (≈ 2.73 µM) |
| CCC(C)CCC(=O)N[C@H](CC(N)=O)C(=O)N[C@H](Cc1ccc(O)cc1)C(=O)N[C@H](Cc1c[nH]c2ccccc12)C(=O)N[C@H](CCCN)C(=O)N[C@@H](CCCN)C(=O)NCC(=O)N[C@H](CCCN)C(=O)N[C@@H](Cc1c[nH]c2ccccc12)C(=O)N[C@H](C(N)=O)[C@@H](C)O (some centres unmarked) [Δ10–12LB-NH2 (13)] ({Hexanoyl(4ξ-Me)}-[dN][dY][dW][dOrn][Orn]G[dOrn]WT-NH2) |  |  | >32 mg/L | >32 mg/L | >32 mg/L | >32 mg/L | >32 mg/L | >32 mg/L |  |  |
| CC[C@H](C)[C@H](NC(=O)[C@@H](NC(=O)[C@H](Cc1c[nH]c2ccccc12)NC(=O)[C@@H](CCCN)NC(=O)CNC(=O)[C@H](CCCN)NC(=O)[C@@H](CCCN)NC(=O)[C@@H](Cc1c[nH]c2ccccc12)NC(=O)[C@@H](Cc1ccc(O)cc1)NC(=O)[C@@H](CO)NC(=O)CCCCCC(C)C)[C@@H](C)O)C(=O)N[C@@H](CC(N)=O)C(N)=O [Δ12–13LL-NH2 (10)] ({Octanoyl(7-Me)}-[dS][dY][dW][dOrn][Orn]G[dOrn]WTIN-NH2) |  |  | 4 mg/L | >32 mg/L | 8 to 16 mg/L | 4 mg/L | 8 mg/L | 4 mg/L |  |  |
| CC[C@H](C)[C@H](NC(=O)[C@H](C)NC(=O)[C@H](Cc1c[nH]c2ccccc12)NC(=O)[C@@H](CCCN)NC(=O)CNC(=O)[C@H](CCCN)NC(=O)[C@@H](CCCN)NC(=O)[C@@H](Cc1c[nH]c2ccccc12)NC(=O)[C@@H](Cc1ccc(O)cc1)NC(=O)[C@@H](CO)NC(=O)CCCCCC(C)C)C(=O)N[C@@H](CC(N)=O)C(=O)NCC(=O)NCC(N)=O [LL(Ala9)-NH2 (37)] ({Octanoyl(7-Me)}-[dS][dY][dW][dOrn][Orn]G[dOrn]WAINGG-NH2) |  |  | 8 mg/L | >32 mg/L | 4 mg/L | 4 mg/L | 4 to 8 mg/L | 4 mg/L |  |  |
| CC[C@H](C)[C@H](NC(=O)[C@H](Cc1ccccc1)NC(=O)[C@H](Cc1c[nH]c2ccccc12)NC(=O)[C@@H](CCCN)NC(=O)CNC(=O)[C@H](CCCN)NC(=O)[C@@H](CCCN)NC(=O)[C@@H](Cc1c[nH]c2ccccc12)NC(=O)[C@@H](Cc1ccc(O)cc1)NC(=O)[C@@H](CO)NC(=O)CCCCCC(C)C)C(=O)N[C@@H](CC(N)=O)C(=O)NCC(=O)NCC(N)=O [LL(Phe9)-NH2 (43)] ({Octanoyl(7-Me)}-[dS][dY][dW][dOrn][Orn]G[dOrn]WFINGG-NH2) |  |  | 4 mg/L | >32 mg/L | 8 mg/L | 8 mg/L | 4 mg/L | 4 mg/L |  | 4 µg/mL (≈ 2.4 µM) |
